Results as given in patent US7005138B2, “Method of systematically delivering SSRIs” (Duramed Pharmaceuticals, Inc., priority 2001, dated 2006).

What was measured:
[1] = rabbit, cited from earlier work
[2] = rabbit
Procedure: (§1) A study was designed to compare the pharmacokinetic profiles of oral vs. intravaginal administration of fluoxetine in white albino female New Zealand rabbits. The study compared the blood levels of fluoxetine and/or its metabolites in the rabbits after either a single oral dose or a single intravaginal dose of fluoxetine hydrochloride. Both oral (tablet) and intravaginal (transvaginal insert) administration delivered the standard human daily dose of 20 mg fluoxetine hydrochloride to each rabbit. The oral route was used to compare the bioavailability of fluoxetine by the two routes of administration.
(§2) Three rabbits received the fluoxetine tablets orally, while three rabbits received fluoxetine inserts intravaginally. The fluoxetine tablets were administered orally using an animal pilling device. The fluoxetine inserts were administered by insertion into the vaginas of the rabbits. The inserts remained in place for 2–4 hours, after which they were removed. Removal was accomplished by using an appropriate instrument to grasp the extension on the back of the insert. If an insert was expelled from an animal before removal, it was noted but not replaced. Both tablets and intravaginal inserts were administered once on Day 0.
The animals were observed twice daily for mortality and general condition. Animals in poor health were identified and further monitored. In addition, observations were made for any signs of toxic or pharmacologic effects (e.g., abnormalities in general, appearance, activity, behavior, respiration, etc.).

[3] = Rabbit study: plasma levels of fluoxetine and norfluoxetine after single oral vs. intravaginal dose
Procedure: as §1, §2
Blood samples were obtained for the determination of plasma concentrations of fluoxetine. Starting on Day 0, blood samples were obtained for toxicokinetic determinations from all animals pretest and at 1, 3, 8, 12, 16, 24, 36, 48, 72, 96, 120, 144, 168, 240, 360, 480, 672 and 840 hours post-dose. Pre-dose samples were collected one week prior to dosing. Approximately 1.5 mL of whole blood was obtained from the medial auricular artery of the unanesthetized rabbits, unfasted, and were preserved using ethylenediamine tetraacetic acid (EDTA). […]
The EDTA preserved rabbit plasma samples were analyzed for fluoxetine and norfluoxetine using a solid phase extraction (SPE) technique. […]
Samples were evaluated using a solid phase extraction technique using conditioned SPE cartridges, then analyzed via HPLC and mass spectroscopy. […]

[4] = oral administration; cited from earlier work

Row | mean plasma levels of metabolite norfluoxetine, intravaginal delivery compared to oral delivery ([3]; after fluoxetine single 20 mg dose) | mean norfluoxetine levels, persistence ([3]; oral group) | SMILES | tolerability of repeated daily doses ([1]; in vivo) | mortality with repeated daily doses ([1]; up to 7.5 mg/kg/day) | decreased food consumption ([2]; in vivo, po) | differences in clinical observations or body weights between administration methods ([2]; in vivo, po) | mortality ([2]; oral tablet and intravaginal insert groups, length of the study) | fluoxetine plasma levels after 72 hours ([3]; in vivo, po) | half life [4]
1 |  |  | CNCCC(Oc1ccc(C(F)(F)F)cc1)c1ccccc1 (racemic) [fluoxetine, dl-N-methyl-γ-[4-(trifluoromethyl)phenoxy]benzenepropanamine] | fairly well tolerated | not associated with mortality | One animal from each treatment group | no differences | No mortality | almost undetectable | 48 to 72 h
2 | much lower | present throughout most of the study | NCCC(Oc1ccc(C(F)(F)F)cc1)c1ccccc1 (stereo not shown) [norfluoxetine] |  |  |  |  |  |  | 170 to 220 h
